Columns and labels:
[1] = test system: patients with bipolar II disorder; assay: Continuous Performance Test (Conner's CPT II), sustained attention; type: in vivo, human; details: 12 weeks versus baseline, result in words
Excerpt: The present invention recruited patients diagnosed with bipolar II disorder (BD-II). The patients were diagnosed by psychiatrists using the improved Chinese version of the Schedule of Affective Disorder and Schizophrenia-Life Time (SADS-L) with good inter-rater reliability and the Diagnostic and Statistical Manual of Mental Disorders, Fourth Edition, Text Revision (DSM-IV-TR) to confirm that the patient meets the integration points of bipolar II disorder in the DSM-IV-TR.
The purpose of the test of the present invention was to test whether dextromethorphan (DM) and sodium valproate (trade name: Depakine) could improve the cognitive function of patients. Therefore, the patients with bipolar II disorder in the present invention were divided into two groups: one group was the patients taking dextromethorphan and sodium valproate together (BDDM), and the other group was the patients taking sodium valproate and placebo (BDPl). Before the patients of the two group took the drug, the present invention first used the following evaluation test to perform a basic evaluation of the patients of the two groups.
The present invention used the computer version of Conner's CPT II 20 which was used to detect the sustained attention of the patients. In the reliability of Conner's CPT II, the split-half reliability ranged from 0.66 to 0.95, and the retest reliability after three months was […]. […]

[2] = Drug concentration in the plasma of the patients after the end of the treatment; details: human, in vivo, after 12 weeks of 1 to 30 mg dextromethorphan per day
Procedure: Both groups were treated with drug. The course of treatment for the group taking dextromethorphan and sodium valproate (BDDM group) was 1 to 30 mg of dextromethorphan and 500 to 2500 mg of sodium valproate per day for 12 weeks. The course of treatment for the group taking sodium valproate and placebo (BDPl group) was 500-2500 mg of sodium valproate and placebo per day for 12 weeks. After the end of the treatment, the concentrations of dextromethorphan in the plasma of the patients were about 10-50 ng/ml (0.05-0.2 μM), and the concentrations of sodium valproate in the plasma were about 50-100 μg/dl.

For `COc1ccc2c(c1)[C@]13CCCC[C@@H]1[C@H](C2)N(C)CC3` [dextromethorphan], which “sustained attention (scores of CPT) after the end of the course of treatment” value [1] is on record?
Its value is “improvement in sustained attention was due to the efficacy of dextromethorphan”.

And the concentration at 12 weeks [2]?
Its concentration at 12 weeks is 10 to 50 ng/mL.

What about the concentration at 12 weeks ([2]; value in brackets) of the same compound?
Its concentration at 12 weeks is 50 to 200 nM.
